Data published in patent US7786141B2 (Vertex Pharmaceuticals Incorporated, priority 2004, dated 2010).

Assays:
[1] = target: T1, M4 muscarinic receptor (Homo sapiens, UniProt P08173); assay: Functional mobilization of intracellular calcium (FLIPR) in M4-CHO cells; format: cell-based; settings: M4 receptor, calcium mobilization; for Emax: read-out: M4 Efficacy
T1 construct: expressed in transfected cells; host or cells: CHO (M4-CHO)
T1 sequence (P08173 1-479): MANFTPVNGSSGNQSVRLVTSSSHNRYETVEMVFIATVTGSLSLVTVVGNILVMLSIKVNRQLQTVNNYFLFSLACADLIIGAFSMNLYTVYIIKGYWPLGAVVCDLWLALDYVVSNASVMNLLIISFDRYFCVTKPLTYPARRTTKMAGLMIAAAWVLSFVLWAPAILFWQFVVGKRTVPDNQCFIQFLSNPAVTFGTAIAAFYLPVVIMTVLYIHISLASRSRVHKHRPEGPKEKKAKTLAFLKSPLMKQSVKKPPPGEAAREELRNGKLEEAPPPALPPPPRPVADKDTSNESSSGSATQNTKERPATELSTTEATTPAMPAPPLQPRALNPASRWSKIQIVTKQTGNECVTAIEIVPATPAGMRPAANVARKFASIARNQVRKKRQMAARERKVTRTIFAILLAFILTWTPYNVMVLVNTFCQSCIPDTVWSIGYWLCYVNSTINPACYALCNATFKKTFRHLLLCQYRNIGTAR
In short: (§1)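 Measured via Fluo-3 fluorescence on a FLIPR, CHO cells with either muscarinic subtype received compound in 0.5% DMSO. Antagonism was assessed after 15 min pre-incubation followed by carbachol at each subtype's EC80; agonism from compound addition alone.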

[2] = target: T2, M1 muscarinic receptor (Homo sapiens, UniProt P11229); assay: Functional mobilization of intracellular calcium (FLIPR) in M1-CHO cells; format: cell-based; settings: M1 receptor, calcium mobilization; for Emax: read-out: M1 Efficacy
T2 construct: expressed in transfected cells; host or cells: CHO (M1-CHO)
T2 sequence (P11229 1-460): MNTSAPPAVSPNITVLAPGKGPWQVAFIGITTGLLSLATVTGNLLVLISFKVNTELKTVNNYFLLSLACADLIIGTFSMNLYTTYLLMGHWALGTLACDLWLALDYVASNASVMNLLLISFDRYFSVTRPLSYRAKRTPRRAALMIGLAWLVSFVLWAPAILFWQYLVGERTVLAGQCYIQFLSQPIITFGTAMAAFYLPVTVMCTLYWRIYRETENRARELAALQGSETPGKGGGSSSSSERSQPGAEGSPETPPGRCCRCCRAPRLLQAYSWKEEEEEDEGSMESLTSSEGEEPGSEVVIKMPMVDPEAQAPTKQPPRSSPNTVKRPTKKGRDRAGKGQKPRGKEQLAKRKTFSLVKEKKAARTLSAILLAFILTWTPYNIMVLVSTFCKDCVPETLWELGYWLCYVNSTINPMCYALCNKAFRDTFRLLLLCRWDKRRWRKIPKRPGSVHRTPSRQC
In short: as §1

In the case of `CCOC(=O)N1CCC(N2CCC3(CC2)CN(C(=O)c2ccno2)c2ccc(F)cc23)CC1` [compound 321], the “M4 Activity” value [1] is reported as “x (activity was measured to be greater than 1.0 μM)”, the Emax [1] is reported as 65 to 85% and the “M1 Activity” value [2] is reported as “xx (activity was measured to be between 0.1 μM and 1.0 μM)”. For the same compound, the Emax [2] was 65 to 85%.
`CCOC(=O)N1C2CCC1CC(N1CCC3(CC1)CN(C(C)=O)c1c(F)cccc13)C2` (stereo not shown) [compound 322] was tested, and the “M4 Activity” value [1] was “xxx (activity was measured to be less than 0.1 μM)”, the Emax [1] was over 85% and the “M1 Activity” value [2] was “xx (activity was measured to be between 0.1 μM and 1.0 μM)”. For the same compound, the Emax [2] was under 65%.
With `CC(=O)N[C@@H]1CC2(CCN([C@@H]3C[C@H]4CC[C@@H]3C4)CC2)c2ccccc21` [compound 323] the “M4 Activity” value [1] was “x (activity was measured to be greater than 1.0 μM)”, the Emax [1] was 65 to 85% and the “M1 Activity” value [2] was “xx (activity was measured to be between 0.1 μM and 1.0 μM)”. The Emax [2] was 65 to 85%.
In the case of `CCCC(=O)N1CC2(CCN(C3CCN(C(=O)OCC)CC3)CC2)c2cc(F)ccc21` [compound 324], the “M4 Activity” value [1] is reported as “x (activity was measured to be greater than 1.0 μM)”, the Emax [1] is reported as 65 to 85% and the “M1 Activity” value [2] is reported as “xx (activity was measured to be between 0.1 μM and 1.0 μM)”. For the same compound, the Emax [2] was 65 to 85%.
For `Fc1ccc2c(c1)C1(CCN(C3CCCCC3)CC1)CN2` [compound 325], the “M4 Activity” value [1] was “x (activity was measured to be greater than 1.0 μM)”, the Emax [1] was under 65% and the “M1 Activity” value [2] was “x (activity was measured to be greater than 1.0 μM)”. It also gave an Emax [2] of 65 to 85%.
In the case of `CCOC(=O)N[C@H]1CC2(CCN(C[C@H]3C[C@H]4CC[C@H]3C4)CC2)c2ccccc21` [compound 326], the “M4 Activity” value [1] is reported as “x (activity was measured to be greater than 1.0 μM)”, the Emax [1] is reported as under 65% and the “M1 Activity” value [2] is reported as “x (activity was measured to be greater than 1.0 μM)”. For the same compound, the Emax [2] was under 65%.
In the case of `CCOC(=O)N1CCC(CN2CCC3(CC2)C(=O)N(C)c2ccccc23)CC1` [compound 327], the “M4 Activity” value [1] is reported as “x (activity was measured to be greater than 1.0 μM)”, the Emax [1] is reported as under 65% and the “M1 Activity” value [2] is reported as “x (activity was measured to be greater than 1.0 μM)”. It also gave an Emax [2] of under 65%.
For `CCCC1CCC(N2CCC3(CC2)CNc2ccc(F)cc23)CC1` (stereo not shown) [compound 328], the “M4 Activity” value [1] was “x (activity was measured to be greater than 1.0 μM)”, the Emax [1] was 65 to 85% and the “M1 Activity” value [2] was “xx (activity was measured to be between 0.1 μM and 1.0 μM)”. For the same compound, the Emax [2] was under 65%.
In the case of `CCCOC(=O)N1C2CCC1CC(N1CCC3(CC1)CN(C(=O)OC1CCC1)c1ccc(F)cc13)C2` (stereo not shown) [compound 329], the “M4 Activity” value [1] is reported as “x (activity was measured to be greater than 1.0 μM)”, the Emax [1] is reported as under 65% and the “M1 Activity” value [2] is reported as “xxx (activity was measured to be less than 0.1 μM)”. The Emax [2] was 65 to 85%.
In the case of `CCOC(=O)N1CCC(N2CCC3(CC2)CN(C(=O)c2ccc(C)cc2)c2ccc(F)cc23)CC1` [compound 330], the “M4 Activity” value [1] is reported as “x (activity was measured to be greater than 1.0 μM)”, the Emax [1] is reported as under 65% and the “M1 Activity” value [2] is reported as “x (activity was measured to be greater than 1.0 μM)”. For the same compound, the Emax [2] was under 65%.
`CCOC(=O)N1CCC(N2CCC3(CC2)CN(C(=O)c2ccccn2)c2ccc(F)cc23)CC1` [compound 331] was tested, and the “M4 Activity” value [1] was “x (activity was measured to be greater than 1.0 μM)”, the Emax [1] was under 65% and the “M1 Activity” value [2] was “xx (activity was measured to be between 0.1 μM and 1.0 μM)”. It also gave an Emax [2] of under 65%.
`CCOC(=O)N1C2CCC1CC(CN1CCC3(CC1)CNc1ccc(C)cc13)C2` (stereo not shown) [compound 332] was tested, and the “M4 Activity” value [1] was “x (activity was measured to be greater than 1.0 μM)”, the Emax [1] was under 65% and the “M1 Activity” value [2] was “x (activity was measured to be greater than 1.0 μM)”. The Emax [2] was under 65%.
`Clc1ccc2c(c1)C1(CCN(C3CCCCCC3)CC1)CN2` [compound 333] was tested, and the “M4 Activity” value [1] was “x (activity was measured to be greater than 1.0 μM)”, the Emax [1] was under 65% and the “M1 Activity” value [2] was “x (activity was measured to be greater than 1.0 μM)”. The Emax [2] was under 65%.
For `CCCC1CCC(N2CCC3(CC2)CNc2ccccc23)CC1` (stereo not shown) [compound 334], the “M4 Activity” value [1] was “x (activity was measured to be greater than 1.0 μM)”, the Emax [1] was under 65% and the “M1 Activity” value [2] was “x (activity was measured to be greater than 1.0 μM)”. It also gave an Emax [2] of under 65%.
`CCOC(=O)N1CCC(N2CCC3(CC2)CN(C(=O)c2cc(C)oc2C)c2ccc(F)cc23)CC1` [compound 335] was tested, and the “M4 Activity” value [1] was “x (activity was measured to be greater than 1.0 μM)”, the Emax [1] was under 65% and the “M1 Activity” value [2] was “x (activity was measured to be greater than 1.0 μM)”. For the same compound, the Emax [2] was under 65%.
For `O=C(O[C@@H]1CCOC1)N1C2CCC1CC(N1CCC3(CC1)C(=O)Nc1ccccc13)C2` (stereo partly shown) [compound 336], the “M4 Activity” value [1] was “x (activity was measured to be greater than 1.0 μM)”, the Emax [1] was under 65% and the “M1 Activity” value [2] was “x (activity was measured to be greater than 1.0 μM)”. For the same compound, the Emax [2] was under 65%.
In the case of `CC(=O)N[C@H]1CC2(CCN(C3CC4CCC(C4)C3)CC2)c2ccccc21` (stereo partly shown) [compound 337], the “M4 Activity” value [1] is reported as “x (activity was measured to be greater than 1.0 μM)”, the Emax [1] is reported as under 65% and the “M1 Activity” value [2] is reported as “x (activity was measured to be greater than 1.0 μM)”. The Emax [2] was under 65%.
In the case of `O=C(O[C@@H]1CCOC1)N1C2CCC1CC(N1CCC3(CC1)COc1ccc(F)cc13)C2` (stereo partly shown) [compound 338], the “M4 Activity” value [1] is reported as “x (activity was measured to be greater than 1.0 μM)”, the Emax [1] is reported as under 65% and the “M1 Activity” value [2] is reported as “x (activity was measured to be greater than 1.0 μM)”. For the same compound, the Emax [2] was under 65%.
`CC(=O)N(C)[C@@H]1CC2(CCN(C[C@H]3C[C@H]4CC[C@H]3C4)CC2)c2ccccc21` [compound 339] was tested, and the “M4 Activity” value [1] was “x (activity was measured to be greater than 1.0 μM)”, the Emax [1] was under 65% and the “M1 Activity” value [2] was “x (activity was measured to be greater than 1.0 μM)”. For the same compound, the Emax [2] was under 65%.
With `CCOC(=O)N1CCC(N2CCC3(CC2)CN(C(C)=O)c2ccc(OC)cc23)CC1` [compound 340] the “M4 Activity” value [1] was “x (activity was measured to be greater than 1.0 μM)”, the Emax [1] was under 65% and the “M1 Activity” value [2] was “xx (activity was measured to be between 0.1 μM and 1.0 μM)”. For the same compound, the Emax [2] was under 65%.
With `CCCC1CCC(N2CCC3(CC2)CNc2ccc(Cl)cc23)CC1` (stereo not shown) [compound 341] the “M4 Activity” value [1] was “x (activity was measured to be greater than 1.0 μM)”, the Emax [1] was under 65% and the “M1 Activity” value [2] was “x (activity was measured to be greater than 1.0 μM)”. For the same compound, the Emax [2] was under 65%.
For `c1ccc2c(c1)NCC21CCN(CC2CCCCC2)CC1` [compound 342], the “M4 Activity” value [1] was “xx (activity was measured to be between 0.1 μM and 1.0 μM)”, the Emax [1] was 65 to 85% and the “M1 Activity” value [2] was “xxx (activity was measured to be less than 0.1 μM)”. For the same compound, the Emax [2] was 65 to 85%.
In the case of `CC(=O)N1CC2(CCN(C3CCCC3)CC2)c2cc(F)ccc21` [compound 343], the “M4 Activity” value [1] is reported as “xxx (activity was measured to be less than 0.1 μM)”, the Emax [1] is reported as under 65% and the “M1 Activity” value [2] is reported as “xxx (activity was measured to be less than 0.1 μM)”. For the same compound, the Emax [2] was 65 to 85%.
In the case of `CCOC(=O)N1C2CCC1CC(N1CCC3(CC1)CN(C(=O)O[C@@H]1CCOC1)c1ccc(F)cc13)C2` (stereo partly shown) [compound 344], the “M4 Activity” value [1] is reported as “xx (activity was measured to be between 0.1 μM and 1.0 μM)”, the “M4 Efficacy” value [1] is reported as “x (efficacy was calculated to be less than 65%)” and the “M1 Activity” value [2] is reported as “xxx (activity was measured to be less than 0.1 μM)”. The “M1 Efficacy” value [2] was “xx (efficacy was calculated to be between 85% and 65%)”.
In the case of `CC(C)OC(=O)N1C2CCC1CC(N1CCC3(CC1)CN(C(=O)C1CC1)c1ccc(F)cc13)C2` (stereo not shown) [compound 345], the “M4 Activity” value [1] is reported as “xx (activity was measured to be between 0.1 μM and 1.0 μM)”, the Emax [1] is reported as under 65% and the “M1 Activity” value [2] is reported as “xxx (activity was measured to be less than 0.1 μM)”. The Emax [2] was under 65%.
With `CC#CCOC(=O)N1CC2(CCN(C3CCN(C(=O)OCC)CC3)CC2)c2cc(F)ccc21` [compound 346] the “M4 Activity” value [1] was “x (activity was measured to be greater than 1.0 μM)”, the Emax [1] was under 65% and the “M1 Activity” value [2] was “xxx (activity was measured to be less than 0.1 μM)”. For the same compound, the Emax [2] was under 65%.
In the case of `CCOC(=O)N(C)[C@H]1CC2(CCN(C[C@H]3C[C@H]4CC[C@H]3C4)CC2)c2ccccc21` [compound 347], the “M4 Activity” value [1] is reported as “xx (activity was measured to be between 0.1 μM and 1.0 μM)”, the Emax [1] is reported as over 85% and the “M1 Activity” value [2] is reported as “xxx (activity was measured to be less than 0.1 μM)”. It also gave an Emax [2] of 65 to 85%.
`Clc1ccc2c(c1)C1(CCN(C3CCC4CCC3C4)CC1)CN2` (stereo not shown) [compound 348] was tested, and the “M4 Activity” value [1] was “xx (activity was measured to be between 0.1 μM and 1.0 μM)”, the Emax [1] was over 85% and the “M1 Activity” value [2] was “xxx (activity was measured to be less than 0.1 μM)”. The Emax [2] was over 85%.
